The test system of series [1] is IRF-1 and IRF-2 protein levels in Jurkat cells. Kind of series: IRF protein levels in interferon-treated Jurkat cells. Format: cell-based, human. As to conditions: data not shown. The text has this: By identifying transcription factor binding sites in the 1A promoter and exon, we will determine whether activation of any of these factors will directly activate the hGR 1A promoter. […] See H. Harada et al., “Structurally Similar but Functionally Distinct Factors, IRF-1 and IRF-2, Bind to the Same Regulatory Elements of IFN and IFN-Inducible Genes,” Cell, vol. 58, pp. 729-739 (1989).

Series [2] deals with GR exon 1 transcripts in CEM-C7 cells. Kind of series: RT-PCR of GR exon 1 transcripts after hormone treatment, CEM-C7. As to conditions: 1 μM.
For series [3], the system named is GR 1A3 exon-containing transcripts in CEM-C7 cells. The experiment in a line: Northern blot of GR exon 1A transcripts after glucocorticoid treatment. The series is classed as cell-based, human. To be noted: 1 μM, data not shown. The source says:
Glucocorticoid hormone treatment is known to up-regulate the levels of both GR mRNA and GR protein in immature T-lymphocytes and in some T-lymphoblasts that undergo apoptosis following hormone treatment. See Denton et al., (1993); and L. P. Eisen et al., “Positive Regulation of the Glucocorticoid Receptor in Human T-Cells Sensitive to the Cytolytic Effects of Glucocorticoids,” J. Biol. Chem., vol. 263, pp. 12044-12048 (1988). The human CEM-C7 acute lymphoblastic leukemia (ALL) cell line has served as a model system for glucocorticoid-sensitive human T-cell ALL. See M. R. Norman and E. B. Thompson, “Characterization of a Glucocorticoid-Sensitive Human Lymphoid Cell Line,” Cancer Res., vol. 37, pp. 3785-3791 (1977). CEM-C7 cells were treated with 1 μM dexamethasone (a glucocorticoid analogue) for various periods of time, from 6 hr to 48 hr. RNA was then extracted, and northern blots were prepared and probed with the GR-1A-exon-specific probes (exon 1A1, exon 1A2, and exon 1A3; Table 1). […] Up-regulation of exon 1A1 and exon 1A2 transcripts was also observed (data not shown).

The test system of series [4] is hormone-resistant clones of human CEM-C7, T-ALL cells, or mouse SAK8 T-lymphoma cells. To be noted: hormone-resistant clones in culture; cited from earlier work.

Consider interferon-α, for which, in series [1], the IRF-1 protein levels result is recorded as “dramatic increase” and the IRF-2 protein levels result is on record as “not IRF-2”. Regarding `C[C@@H]1C[C@H]2[C@@H]3CCC4=CC(=O)C=C[C@]4(C)[C@@]3(F)[C@@H](O)C[C@]2(C)[C@@]1(O)C(=O)CO` [dexamethasone], the “increase in exon 1A3-containing transcripts” value in series [2] was found to be 2.5 fold. The “exon 1A1 and exon 1A2 transcripts” value in series [3] was “Up-regulation”. Turning to `Nc1ncn([C@@H]2O[C@H](CO)[C@@H](O)[C@H]2O)c(=O)n1` [5-azacytidine], the “sensitivity to glucocorticoid-mediated killing” value in series [4] is “become stably sensitive to glucocorticoid-mediated killing”.

B1: interferon-γ: interferon used to treat Jurkat cells (protein, UniProt P01579 24-161, looked up)
Interferon gamma: QDPYVKEAENLKKYFNAGHSDVADNGTLFLGILKNWKEESDRKIMQSQIVSFYFKLFKNFKDDQSIQKSVETIKEDMNVKFFNSNKKKRDDFEKLTNYSVTDLNVQRKAIHELIQVMAELSPAAKTGKRKRSQMLFRG
With B1, in series [1], the IRF-1 protein levels result was “dramatic increase” and the IRF-2 protein levels result is listed as “not IRF-2”.

Values taken from patent publication US7268224B2, “Human glucocorticoid receptor 1A promoter and splice variants” (Board of Supervisors of Louisianna State University and …, priority 2000, dated 2007).
